In one assay the test system is SW1990 xenograft. Description: SW1990 xenograft mouse model. It is filed as in vivo. As to conditions: 5 mg/kg intraperitoneal injection daily, P < 0.01, dose-dependent. The procedure:
All animal experiments were performed in accordance with the Guide for the Care and Use of Laboratory Animals of Tongji Medical College, Huazhong University of Science and Technology and approved by the Ethics Committee. CB-17/ SCID mice (male, 4 weeks old) were purchased from Beijing HFK Bioscience CO., LTD (Beijing, China). SW1990 cells were inoculated subcutaneously (3 × 10^6 cells) into the left flank of each mouse. Six days later, mice were randomly divided into […] and were injected i.p. daily for 16 days with one of the following treatments: (1) natural saline group (n = 10); (2) 5 mg/Kg physapubescin K (n = 10); (3) 10 mg/Kg physapubescin K (n = 10). The dose volume was 0.1 mL/10 g body weight, and the weights of mice were recorded every day. Meanwhile, the tumor volumes were measured with vernier calipers and calculated by the following formula: (A × B2)/2, where A was length and B was width of the two-dimension tumor. After animals were sacrificed, tumor weights were measured. The inhibition ratio (%) was calculated using the following equation: I% = 100% × [Wtumor (vehicle) − Wtumor (treated)]/Wtumor (vehicle)

The next assay has as its system SW1990 cells. Description: EdU and DAPI double staining proliferation assay, SW1990. It is filed as cell-based, human. As to conditions: 5 μM.

The record followed here is article PMC5768343, “A natural inhibitor of kidney-type glutaminase: a withanolide from Physalis pubescens with potent anti-tumor activity” (Oncotarget, 2017).

Description for SW1990 cells: The logarithmic growth phase cells were seeded in 24-well plates at 2 × 10^4 ∼ 5 × 10^5 cells per well. After 4–6 h, the medium was removed, the medium containing no or different concentrations of compound was replaced, and 50 μM of EdU was added. 2 h later, the medium was removed, cells washed by PBS. 200 μL of cell fixative (i.e., PBS containing 4% paraformaldehyde) was added and incubated at room temperature for 30 minutes. The solution was discarded and 200 μL of 2 mg/mL glycine was added to each well. After 5 minutes of incubation, the glycine solution was discarded. Each well washed with 200 μL of PBS, rinse for 5 minutes, and PBS was removed. Apollo staining was added to each well with 200 μL of 1 X Apollo® staining solution. After incubation for 30 minutes at room temperature and decolorization, the reaction solution was discarded. Similarly, 200 μL of 1 × Hoechst 33342 solution was added to each well to dye the total DNA. After 30 minutes of incubation at room temperature and the reaction solution was discarded, and then the images were captured and analyzed by fluorescence microscopy.

Take `CO[C@H]1O[C@@H]([C@@H](C)[C@H]2C[C@H](OC(C)=O)[C@H]3[C@@H]4C[C@H]5O[C@]56[C@@H](O)C=CC(=O)[C@]6(C)[C@H]4CC[C@@]32C)C[C@]2(C)O[C@]12C` [physapubescin K]: the “growth of the tumor” value in the assay with SW1990 xenograft was “significantly inhibit the growth of the tumor”. In the assay on SW1990 cells, the proliferated cell ratio result is “close to zero”.
